# Assay results taken from article PMC7486443, “Generation of Phenothiazine with Potent Anti-TLK1 Activity for Prostate Cancer Therapy” (iScience, 2020).
# Key:
# Assay in all cases: biochemical
# Design in all cases: DiscoverX KINOMEscan scanMAX competition binding panel, single concentration, percent of control; remaining binding: dose or concentration left out as unconfirmed
# Conditions in all cases: KINOMEscan binding, percent of control; read-out: Table S4_SCANMAX REPORT - related to Fig. 1 / Percent Control
# [1] = biological target: T1, ABL1(F317L)-nonphosphorylated (Homo sapiens, UniProt P00519, F317L)
# T1 construct: nonphosphorylated
# [2] = biological target: T2, ABL1(Q252H)-phosphorylated (Homo sapiens, UniProt P00519, Q252H)
# T2 construct: phosphorylated
# [3] = biological target: EIF2AK1 (Homo sapiens, UniProt Q9BQI3)
# [4] = biological target: T3, ERK5 (Homo sapiens, UniProt Q13164)
# T3 construct: gene MAPK7
# [5] = biological target: FLT3(D835Y) (Homo sapiens, UniProt P36888, D835Y)
# [6] = biological target: HUNK (Homo sapiens, UniProt P57058)
# [7] = biological target: T4, JAK3(JH1domain-catalytic) (Homo sapiens, UniProt P52333)
# T4 construct: JH1domain-catalytic
# [8] = biological target: LCK (Homo sapiens, UniProt P06239)
# [9] = biological target: MUSK (Homo sapiens, UniProt O15146)
# [10] = biological target: MYLK4 (Homo sapiens, UniProt Q86YV6)
# [11] = biological target: PIK3C2B (Homo sapiens, UniProt O00750)
# [12] = biological target: T5, PRKR (Homo sapiens, UniProt P19525)
# T5 construct: gene EIF2AK2
# [13] = biological target: T6, PRP4 (Homo sapiens, UniProt Q13523)
# T6 construct: gene PRPF4B
# [14] = biological target: T7, RIPK5 (Homo sapiens, UniProt Q6XUX3)
# T7 construct: gene DSTYK
# [15] = biological target: ROCK2 (Homo sapiens, UniProt O75116)
# [16] = biological target: T8, RSK3(Kin.Dom.2-C-terminal) (Homo sapiens, UniProt Q15349)
# T8 construct: gene RPS6KA2; Kin.Dom.2-C-terminal
# [17] = biological target: SBK1 (Homo sapiens, UniProt Q52WX2)
# [18] = biological target: T9, SIK (Homo sapiens, UniProt P57059)
# T9 construct: gene SIK1
# T7 sequence (Q6XUX3 whole entry): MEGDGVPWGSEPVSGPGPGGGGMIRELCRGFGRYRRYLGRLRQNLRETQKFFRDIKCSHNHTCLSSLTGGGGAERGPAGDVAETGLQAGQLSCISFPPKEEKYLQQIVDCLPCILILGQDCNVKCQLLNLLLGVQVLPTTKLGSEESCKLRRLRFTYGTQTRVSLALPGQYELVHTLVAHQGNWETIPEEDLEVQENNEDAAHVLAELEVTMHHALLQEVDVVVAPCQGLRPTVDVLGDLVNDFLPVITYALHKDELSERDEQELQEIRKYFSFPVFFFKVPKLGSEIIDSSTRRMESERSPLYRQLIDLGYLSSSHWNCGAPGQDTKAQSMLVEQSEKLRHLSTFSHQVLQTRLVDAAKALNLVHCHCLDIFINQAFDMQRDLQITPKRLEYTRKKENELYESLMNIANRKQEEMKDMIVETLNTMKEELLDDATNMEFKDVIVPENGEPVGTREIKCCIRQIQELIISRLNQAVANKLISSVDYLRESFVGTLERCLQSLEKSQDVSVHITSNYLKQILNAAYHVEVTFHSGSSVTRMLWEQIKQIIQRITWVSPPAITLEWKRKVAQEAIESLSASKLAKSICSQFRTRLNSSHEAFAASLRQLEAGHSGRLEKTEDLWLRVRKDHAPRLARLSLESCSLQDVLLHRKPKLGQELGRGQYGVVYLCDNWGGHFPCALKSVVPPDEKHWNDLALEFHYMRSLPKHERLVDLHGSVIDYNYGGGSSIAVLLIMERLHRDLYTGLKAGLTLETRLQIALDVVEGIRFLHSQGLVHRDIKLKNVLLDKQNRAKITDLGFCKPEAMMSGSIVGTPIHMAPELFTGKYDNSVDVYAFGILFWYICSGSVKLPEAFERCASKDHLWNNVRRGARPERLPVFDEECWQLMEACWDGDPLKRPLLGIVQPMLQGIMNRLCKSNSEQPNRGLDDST
# Sequence of SBK1 (Q52WX2 whole entry): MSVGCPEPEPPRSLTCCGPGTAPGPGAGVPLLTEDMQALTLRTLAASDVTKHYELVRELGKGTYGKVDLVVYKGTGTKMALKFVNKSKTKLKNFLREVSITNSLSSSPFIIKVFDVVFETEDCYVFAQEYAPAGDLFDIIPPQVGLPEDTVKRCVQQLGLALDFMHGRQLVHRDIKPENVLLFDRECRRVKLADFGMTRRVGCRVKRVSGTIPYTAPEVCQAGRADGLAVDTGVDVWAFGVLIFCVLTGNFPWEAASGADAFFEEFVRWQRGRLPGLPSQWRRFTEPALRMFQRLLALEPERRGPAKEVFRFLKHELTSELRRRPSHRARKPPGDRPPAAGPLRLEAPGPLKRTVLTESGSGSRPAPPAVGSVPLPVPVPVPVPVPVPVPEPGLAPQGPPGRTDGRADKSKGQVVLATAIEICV
# Sequence of ROCK2 (O75116 whole entry): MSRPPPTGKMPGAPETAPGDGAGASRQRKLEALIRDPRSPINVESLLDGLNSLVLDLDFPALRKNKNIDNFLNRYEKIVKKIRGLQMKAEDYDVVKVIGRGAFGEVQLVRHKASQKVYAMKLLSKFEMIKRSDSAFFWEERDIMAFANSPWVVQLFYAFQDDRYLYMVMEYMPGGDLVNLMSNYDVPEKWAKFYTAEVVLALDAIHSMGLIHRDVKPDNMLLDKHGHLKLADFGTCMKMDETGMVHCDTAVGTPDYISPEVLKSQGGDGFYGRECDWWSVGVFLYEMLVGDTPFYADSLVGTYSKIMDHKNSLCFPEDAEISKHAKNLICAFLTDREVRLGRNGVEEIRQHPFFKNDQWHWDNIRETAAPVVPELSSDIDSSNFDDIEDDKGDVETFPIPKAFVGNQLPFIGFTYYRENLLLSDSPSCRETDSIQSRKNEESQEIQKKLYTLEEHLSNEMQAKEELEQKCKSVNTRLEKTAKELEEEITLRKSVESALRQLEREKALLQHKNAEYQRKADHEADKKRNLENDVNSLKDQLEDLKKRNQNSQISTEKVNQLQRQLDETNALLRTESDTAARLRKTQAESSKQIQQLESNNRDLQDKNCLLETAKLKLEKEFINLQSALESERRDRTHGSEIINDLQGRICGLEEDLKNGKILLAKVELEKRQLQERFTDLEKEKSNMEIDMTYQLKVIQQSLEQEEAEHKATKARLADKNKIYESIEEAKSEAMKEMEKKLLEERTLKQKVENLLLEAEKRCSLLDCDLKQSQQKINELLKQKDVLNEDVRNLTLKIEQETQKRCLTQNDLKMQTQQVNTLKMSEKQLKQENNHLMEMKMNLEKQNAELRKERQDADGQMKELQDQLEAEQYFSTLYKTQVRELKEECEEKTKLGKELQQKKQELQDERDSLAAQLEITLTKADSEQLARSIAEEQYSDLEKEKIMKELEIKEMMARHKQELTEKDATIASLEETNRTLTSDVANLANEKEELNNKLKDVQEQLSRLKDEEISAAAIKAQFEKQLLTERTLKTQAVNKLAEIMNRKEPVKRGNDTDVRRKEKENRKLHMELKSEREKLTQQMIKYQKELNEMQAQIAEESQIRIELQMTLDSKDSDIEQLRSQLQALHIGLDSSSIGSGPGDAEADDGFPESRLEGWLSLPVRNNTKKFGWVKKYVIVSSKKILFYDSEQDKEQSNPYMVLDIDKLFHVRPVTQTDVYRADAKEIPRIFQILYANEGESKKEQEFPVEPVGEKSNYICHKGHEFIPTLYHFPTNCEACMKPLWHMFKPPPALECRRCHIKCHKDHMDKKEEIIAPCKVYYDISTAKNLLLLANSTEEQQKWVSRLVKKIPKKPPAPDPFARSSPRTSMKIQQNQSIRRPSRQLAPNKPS
# Sequence of MUSK (O15146 whole entry): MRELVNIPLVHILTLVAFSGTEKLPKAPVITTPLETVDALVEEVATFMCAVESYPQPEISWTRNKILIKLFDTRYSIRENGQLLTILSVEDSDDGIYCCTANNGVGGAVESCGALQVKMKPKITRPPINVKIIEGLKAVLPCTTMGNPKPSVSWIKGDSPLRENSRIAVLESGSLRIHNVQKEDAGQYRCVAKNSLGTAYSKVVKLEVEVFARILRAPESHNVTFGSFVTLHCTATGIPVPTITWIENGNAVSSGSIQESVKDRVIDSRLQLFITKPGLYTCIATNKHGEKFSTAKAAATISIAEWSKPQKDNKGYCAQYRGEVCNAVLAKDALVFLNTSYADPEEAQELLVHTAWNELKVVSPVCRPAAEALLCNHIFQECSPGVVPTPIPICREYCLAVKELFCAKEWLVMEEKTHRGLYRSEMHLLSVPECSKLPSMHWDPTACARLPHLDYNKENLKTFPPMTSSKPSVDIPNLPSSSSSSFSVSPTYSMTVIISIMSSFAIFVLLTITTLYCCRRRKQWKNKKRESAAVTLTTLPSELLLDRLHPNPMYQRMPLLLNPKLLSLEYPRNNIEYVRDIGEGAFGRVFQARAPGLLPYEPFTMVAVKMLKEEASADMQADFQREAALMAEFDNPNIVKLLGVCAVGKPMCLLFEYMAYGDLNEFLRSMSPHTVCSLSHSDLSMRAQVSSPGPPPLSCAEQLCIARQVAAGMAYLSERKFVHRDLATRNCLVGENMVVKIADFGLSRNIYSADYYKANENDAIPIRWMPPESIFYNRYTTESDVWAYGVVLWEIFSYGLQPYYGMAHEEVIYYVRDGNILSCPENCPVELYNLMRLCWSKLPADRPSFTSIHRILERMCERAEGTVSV
# T4 sequence (P52333 whole entry): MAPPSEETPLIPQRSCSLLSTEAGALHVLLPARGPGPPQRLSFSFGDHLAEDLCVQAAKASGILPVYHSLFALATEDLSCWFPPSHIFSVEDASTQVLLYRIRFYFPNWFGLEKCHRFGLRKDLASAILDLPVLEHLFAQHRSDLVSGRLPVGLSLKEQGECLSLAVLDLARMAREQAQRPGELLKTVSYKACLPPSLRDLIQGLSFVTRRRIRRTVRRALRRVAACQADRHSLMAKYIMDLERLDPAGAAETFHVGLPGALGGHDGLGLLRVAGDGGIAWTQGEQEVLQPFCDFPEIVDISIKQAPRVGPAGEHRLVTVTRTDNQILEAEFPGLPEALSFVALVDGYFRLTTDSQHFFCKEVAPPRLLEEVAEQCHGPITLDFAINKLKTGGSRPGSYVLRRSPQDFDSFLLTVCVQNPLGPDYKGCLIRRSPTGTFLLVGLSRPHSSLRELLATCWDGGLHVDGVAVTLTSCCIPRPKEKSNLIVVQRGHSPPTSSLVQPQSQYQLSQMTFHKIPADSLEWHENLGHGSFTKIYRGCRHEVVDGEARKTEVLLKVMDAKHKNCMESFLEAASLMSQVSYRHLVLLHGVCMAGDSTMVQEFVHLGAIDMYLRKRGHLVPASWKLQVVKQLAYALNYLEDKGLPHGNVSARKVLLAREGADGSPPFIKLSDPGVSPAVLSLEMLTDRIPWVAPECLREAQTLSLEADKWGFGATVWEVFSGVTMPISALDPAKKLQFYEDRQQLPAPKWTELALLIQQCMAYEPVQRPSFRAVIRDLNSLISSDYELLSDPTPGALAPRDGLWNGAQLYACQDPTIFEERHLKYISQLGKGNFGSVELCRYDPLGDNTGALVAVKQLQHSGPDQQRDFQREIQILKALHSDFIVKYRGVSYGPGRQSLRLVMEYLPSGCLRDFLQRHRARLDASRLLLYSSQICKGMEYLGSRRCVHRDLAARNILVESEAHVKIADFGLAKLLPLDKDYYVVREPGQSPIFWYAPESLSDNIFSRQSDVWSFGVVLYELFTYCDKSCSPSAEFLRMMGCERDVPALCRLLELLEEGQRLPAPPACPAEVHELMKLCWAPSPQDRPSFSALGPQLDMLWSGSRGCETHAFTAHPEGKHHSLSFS
smiles,measurement,setting,value
c1ccc2c(c1)Sc1ccccc1N2CCN1CCOCC1 [J54],remaining binding,[1],98%
same,remaining binding,[2],90%
same,remaining binding,[3],90%
same,remaining binding,[4],100%
same,remaining binding,[5],79%
same,remaining binding,[6],58%
same,remaining binding,[7],85%
same,remaining binding,[8],100%
same,remaining binding,[9],100%
same,remaining binding,[10],99%
same,remaining binding,[11],96%
same,remaining binding,[12],93%
same,remaining binding,[13],74%
same,remaining binding,[14],100%
same,remaining binding,[15],98%
same,remaining binding,[16],97%
same,remaining binding,[17],93%
same,remaining binding,[18],91%
